According to patent US20200030463A1, “USE RADIUM RA-223 […] THE TREATMENT OF MULTIPLE MYELOMA” (Bayer Aktiengesellschaft, priority 2017, published 2020):

Experiments:
[1] = test system: JJN-3, L-363, LP-1, MOLP-8, RPMI-8226, OPM-2 and 5TGM1 cells; experiment: Proliferation assays, all cancer cell lines tested; assay type: cell-based, human and mouse
Description: (§1) Proliferation assays were performed with human plasma cell leukemia (JJN-3, L-363), human multiple myeloma (LP-1, MOLP-8, RPMI-8226 and OPM-2) and mouse MM 5TGM1 cells. The corresponding in vivo effects were studied in a syngeneic 5TGM1 mouse MM model. Female C57BL/KaLwRij mice (6-9 weeks old, n=15/group) were inoculated with 5TGM1 cells via tail vein and 26 days later, radium-223 (300 kBq/kg, single iv injection) and/or bortezomib (1 mg/kg ip, twice a week) or vehicle control were administered. The development of the osteolytic lesions was detected by radiography. The hind limbs were used for histological analyses and total activity measurement performed by a gamma-counter. Osteoclast number at tumor-bone interface was measured using TRAP staining.

[2] = test system: L-363 human plasma cell leukemia cells; experiment: Proliferation assay, L-363; assay type: cell-based; conditions: L-363 cells
Description: as §1, with “staining. Bortezomib inhibited proliferation of all cancer cell lines tested at 25 nM (JJN3 and OPM-2 at 2.5 nM) and radium-223 at 800 Bq/ml (L-363 and MOLP-8 at 200 Bq/ml). […] In 5TGM1 MM model, both bortezomib and radium-223 decreased osteolytic lesion area as monotherapy (p<0.05 and p=0.01, respectively). […] All treatments were well tolerated.” for “staining.”

[3] = test system: MOLP-8 human multiple myeloma cells; experiment: Proliferation assay, MOLP-8; assay type: cell-based; conditions: MOLP-8 cells
Description: as §1, with “staining. Bortezomib inhibited proliferation of all cancer cell lines tested at 25 nM (JJN3 and OPM-2 at 2.5 nM) and radium-223 at 800 Bq/ml (L-363 and MOLP-8 at 200 Bq/ml). […] In 5TGM1 MM model, both bortezomib and radium-223 decreased osteolytic lesion area as monotherapy (p<0.05 and p=0.01, respectively). […] All treatments were well tolerated.” for “staining.”

[4] = test system: syngeneic 5TGM1 mouse MM model; experiment: Syngeneic 5TGM1 mouse MM model; assay type: in vivo; conditions: p<0.05 bortezomib; for osteolytic lesion area: radiography, radium-223 300 kBq/kg single iv and/or bortezomib 1 mg/kg ip twice a week, p=0.01 radium-223, p<0.001 combination
Description: as §1

[5] = test system: patients with CRPC and bone metastases; conditions: cited from earlier work
[6] = single dose 250 kBq per kg body weight; cited from earlier work
[7] = test system: patients with bone metastases; conditions: cited from earlier work
[8] = test system: JJN-3 human plasma cell leukemia cells; experiment: Proliferation assay, JJN-3; assay type: cell-based; conditions: JJN3 cells
Description: as §1

[9] = test system: OPM-2 human multiple myeloma cells; experiment: Proliferation assay, OPM-2; assay type: cell-based; conditions: OPM-2 cells
Description: as §1

[10] = phase 2 studies, CRPC and bone metastases

| Compound | activity concentration at which proliferation was inhibited [1] [Bq/ml] | activity concentration at which proliferation was inhibited [2] [Bq/ml] | activity concentration at which proliferation was inhibited [3] [Bq/ml] | osteolytic lesion area [4] | median survival longer than placebo ([5]; CRPC with bone metastases) [months] | median overall survival ([5]; Phase III clinical trials) | reduction in risk of death compared with placebo ([5]; overall survival, CRPC with bone metastases) [%] | time to first skeletal-related event ([5]; vs placebo) | cases of grade 3 neutropenia [6] | observed adverse reactions [6] | safety profile ([7]; phase 1 and 2 studies) | disease-related biomarkers (bone ALP, PSA) [7, 10] | pain [7, 10] | concentration at which proliferation was inhibited [1] [nM] | concentration at which proliferation was inhibited [8] [nM] | concentration at which proliferation was inhibited [9] [nM] | number of osteoclasts at tumor-bone interface ([4]; TRAP staining, p<0.01 combination) |
| --- | --- | --- | --- | --- | --- | --- | --- | --- | --- | --- | --- | --- | --- | --- | --- | --- | --- |
| [Cl][223Ra][Cl] [radium-223, radium-223 dichloride] | 800 | 200 | 200 | decreased | 2.8 | Significant increase | 30.5 | significantly prolonged | 1/5 | diarrhea and reversible myelosuppression | favorable safety profile with minimal myelotoxicity | improves | reduces pain | – | – | – | – |
| CC(C)C[C@H](NC(=O)[C@H](Cc1ccccc1)NC(=O)c1cnccn1)B(O)O [bortezomib] | – | – | – | decreased | – | – | – | – | – | – | – | – | – | 25 | 2.5 | 2.5 | decreased |
